Results published in patent US20230391760A1, “HETEROCYCLIC GLP-1 AGONISTS” (Gasherbrum Bio, Inc., priority 2020, published 2023).

Target: GLP-1 Receptor (Homo sapiens, UniProt P43220)
Test: GLP-1R agonist cAMP stimulation assay (HEK293/GLP1R/CRE-LUC cells, cAMP dynamic 2 Kit)
Type: cell-based
Conditions: HEK293/CRE-Luc cell line stably expressing the GLP-1 Receptor, 30 min at 37° C.
Experimental: Activation of GLP-1 receptor is known to stimulate cyclic AMP (cAMP) production in cells which indicates primary coupling to the Gαs subunit of the G protein heterotrimeric complex. […] To optimize functional activity directed toward Gαs coupling, a HEK293/CRE-Luc cell line developed by HDB stably expressing the GLP-1 Receptor was used. 200×concentration of compound working solutions were prepared (Agilent Technologies Bravo) with 1/2 log serial dilution in 384-well Echo LDV plate (Labcyte, Cat #LP-0200). 50 nL/well 200× concentration of compound working solutions were moved to 384-well white low volume plate (Greiner,Cat #784075) using Labcyte ECHO550. 1×10^5 cells/mL HEK293/GLP1R/CRE-LUC(HD Biosciences) cell suspensions prepared with assay buffer[DPBS containing 0.5 mM IBMX(Sigma, Cat #15879) and 0.1% BSA (GENVIEW, Cat #FA016-100 g)], 10 uL cell suspensions were added to each well of previous generated assay plate which already contains 50 nl compound at 200×concentration using ThermoFisher Multidrop Combi (1000 cells/well). Seal the plate and incubate at 37° C. with 5% CO2 for 30 min. After incubation the cAMP assay signal was generated using cAMP dynamic 2 Kit (Cisbio). 5 μL cAMP-d2 working solution was added to each well, followed with 5 μL Anti-cAMP antibody-cryptate working solution added to each well using ThermoFisher Multidrop Combi. Incubate at room temperature for 1 hour protected from light.

Chain of GLP-1 Receptor (P43220 24-463, species assumed): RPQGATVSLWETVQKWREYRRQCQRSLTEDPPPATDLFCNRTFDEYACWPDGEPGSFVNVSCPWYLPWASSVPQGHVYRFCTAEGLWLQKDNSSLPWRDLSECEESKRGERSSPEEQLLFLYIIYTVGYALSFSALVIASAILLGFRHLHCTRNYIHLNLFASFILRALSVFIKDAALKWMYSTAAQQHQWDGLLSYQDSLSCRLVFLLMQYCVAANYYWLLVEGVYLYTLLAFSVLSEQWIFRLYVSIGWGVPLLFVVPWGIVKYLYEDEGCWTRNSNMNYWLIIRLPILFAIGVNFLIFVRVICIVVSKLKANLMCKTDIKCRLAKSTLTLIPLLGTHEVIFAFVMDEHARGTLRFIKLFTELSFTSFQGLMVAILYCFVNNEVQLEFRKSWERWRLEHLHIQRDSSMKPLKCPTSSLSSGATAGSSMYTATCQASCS

Row | Compound | EC50 [nM]
1 | O=C(Nc1ccc2c(c1)nc(CN1CCC(c3cccc(OCc4ccc(Cl)cc4F)n3)CC1)n2C[C@@H]1CCO1)C1CCS(=O)(=O)CC1 [Compound 156a, N-{2-[(4-{6-[(4-chloro-2-fluorophenyl)methoxy]pyridin-2-yl}piperidin-1-yl)methyl]-1-{[(2S)-oxetan-2-yl]methyl}-1H-1,3-benzodiazol-5-yl}-1,1-dioxo-1λ^6-thiane-4-carboxamide] | 3
2 | CC1(c2ccc(Cl)cc2F)Oc2cccc(C3CCN(Cc4nc5cc(C(=O)O)ccc5n4C[C@@H]4CCO4)CC3)c2O1 (stereo partly drawn) [Compound 161a, 2-((4-(2-(4-chloro-2-fluorophenyl)-2-methylbenzo[d][1,3]dioxol-4-yl)piperidin-1-yl)methyl)-1-(((S)-oxetan-2-yl)methyl)-1H-benzo[d]imidazole-5-carboxylic acid] | 0.51
3 | O=C(Nc1ccc2c(c1)nc(CN1CCC(c3cccc(OCc4ccc(Cl)cc4F)n3)CC1)n2C[C@@H]1CCO1)c1ccccc1 [Compound 166a, N-{2-[(4-{6-[(4-chloro-2-fluorophenyl)methoxy]pyridin-2-yl}piperidin-1-yl)methyl]-1-{[(2S)-oxetan-2-yl]methyl}-1H-1,3-benzodiazol-5-yl}benzamide] | 0.14
4 | O=C(Nc1ccc2c(c1)nc(CN1CCC(c3cccc(OCc4ccc(Cl)cc4F)n3)CC1)n2C[C@@H]1CCO1)c1cccnc1 [Compound 168a, N-{2-[(4-{6-[(4-chloro-2-fluorophenyl)methoxy]pyridin-2-yl}piperidin-1-yl)methyl]-1-{[(2S)-oxetan-2-yl]methyl}-1H-1,3-benzodiazol-5-yl}pyridine-3-carboxamide] | 0.058
5 | N#Cc1cccc(C(=O)Nc2ccc3c(c2)nc(CN2CCC(c4cccc(OCc5ccc(Cl)cc5F)n4)CC2)n3C[C@@H]2CCO2)c1 [Compound 169a, N-{2-[(4-{6-[(4-chloro-2-fluorophenyl)methoxy]pyridin-2-yl}piperidin-1-yl)methyl]-1-{[(2S)-oxetan-2-yl]methyl}-1H-1,3-benzodiazol-5-yl}-3-cyanobenzamide] | 0.92
6 | O=C(Nc1ccc2c(c1)nc(CN1CCC(c3cccc(OCc4ccc(Cl)cc4F)n3)CC1)n2C[C@@H]1CCO1)c1ccccn1 [Compound 170a, N-{2-[(4-{6-[(4-chloro-2-fluorophenyl)methoxy]pyridin-2-yl}piperidin-1-yl)methyl]-1-{[(2S)-oxetan-2-yl]methyl}-1H-1,3-benzodiazol-5-yl}pyridine-2-carboxamide] | 0.14
7 | O=C(Nc1ccc2c(c1)nc(CN1CCC(c3cccc(OCc4ccc(Cl)cc4F)n3)CC1)n2C[C@@H]1CCO1)C1COCCO1 (stereo partly drawn) [Compound 172a, N-{2-[(4-{6-[(4-chloro-2-fluorophenyl)methoxy]pyridin-2-yl}piperidin-1-yl)methyl]-1-{[(2S)-oxetan-2-yl]methyl}-1H-1,3-benzodiazol-5-yl}-1,4-dioxane-2-carboxamide] | 0.31
8 | Cc1ccc(C(=O)Nc2ccc3c(c2)nc(CN2CCC(c4cccc(OCc5ccc(Cl)cc5F)n4)CC2)n3C[C@@H]2CCO2)cn1 [Compound 173a, N-{2-[(4-{6-[(4-chloro-2-fluorophenyl)methoxy]pyridin-2-yl}piperidin-1-yl)methyl]-1-{[(2S)-oxetan-2-yl]methyl}-1H-1,3-benzodiazol-5-yl}-6-methylpyridine-3-carboxamide] | 0.26
9 | CCc1ccc(C(=O)Nc2ccc3c(c2)nc(CN2CCC(c4cccc(OCc5ccc(Cl)cc5F)n4)CC2)n3C[C@@H]2CCO2)cn1 [Compound 174a, N-{2-[(4-{6-[(4-chloro-2-fluorophenyl)methoxy]pyridin-2-yl}piperidin-1-yl)methyl]-1-{[(2S)-oxetan-2-yl]methyl}-1H-1,3-benzodiazol-5-yl}-6-ethylpyridine-3-carboxamide] | 0.56
10 | COc1ccc(C(=O)Nc2ccc3c(c2)nc(CN2CCC(c4cccc(OCc5ccc(Cl)cc5F)n4)CC2)n3C[C@@H]2CCO2)cn1 [Compound 175a, N-{2-[(4-{6-[(4-chloro-2-fluorophenyl)methoxy]pyridin-2-yl}piperidin-1-yl)methyl]-1-{[(2S)-oxetan-2-yl]methyl}-1H-1,3-benzodiazol-5-yl}-6-methoxypyridine-3-carboxamide] | 1.5
11 | O=C(Nc1ccc2c(c1)nc(CN1CCC(c3cccc(OCc4ccc(Cl)cc4F)n3)CC1)n2C[C@@H]1CCO1)c1ccn2cncc2c1 [Compound 179a, N-{2-[(4-{6-[(4-chloro-2-fluorophenyl)methoxy]pyridin-2-yl}piperidin-1-yl)methyl]-1-{[(2S)-oxetan-2-yl]methyl}-1H-1,3-benzodiazol-5-yl}imidazo[1,5-a]pyridine-7-carboxamide] | 0.27
12 | O=C(Nc1ccc2c(c1)nc(CN1CCC(c3cccc(OCc4ccc(Cl)cc4F)n3)CC1)n2C[C@@H]1CCO1)C1Cc2ccncc2C1 (stereo partly drawn) [Compound 180a, N-{2-[(4-{6-[(4-chloro-2-fluorophenyl)methoxy]pyridin-2-yl}piperidin-1-yl)methyl]-1-{[(2S)-oxetan-2-yl]methyl}-1H-1,3-benzodiazol-5-yl}-5H,6H,7H-cyclopenta[c]pyridine-6-carboxamide] | 6

Second part, the compound after the results:

Row | EC50 [nM] | Compound
13 | 1.1 | O=C(Nc1ccc2c(c1)nc(CN1CCC(c3cccc(OCc4ccc(Cl)cc4F)n3)CC1)n2C[C@@H]1CCO1)C(F)(F)F [Compound 167a, N-{2-[(4-{6-[(4-chloro-2-fluorophenyl)methoxy]pyridin-2-yl}piperidin-1-yl)methyl]-1-{[(2S)-oxetan-2-yl]methyl}-1H-1,3-benzodiazol-5-yl}-2,2,2-trifluoroacetamide]
14 | 0.27 | O=C(Nc1ccc2c(c1)nc(CN1CCC(c3cccc(OCc4ccc(Cl)cc4F)n3)CC1)n2C[C@@H]1CCO1)c1ccncc1 [Compound 171a, N-{2-[(4-{6-[(4-chloro-2-fluorophenyl)methoxy]pyridin-2-yl}piperidin-1-yl)methyl]-1-{[(2S)-oxetan-2-yl]methyl}-1H-1,3-benzodiazol-5-yl}pyridine-4-carboxamide]
15 | 8.6 | O=C(Nc1ccc2c(c1)nc(CN1CCC(c3cccc(OCc4ccc(Cl)cc4F)n3)CC1)n2C[C@@H]1CCO1)c1ccc(C2CC2)nc1 [Compound 176a, N-{2-[(4-{6-[(4-chloro-2-fluorophenyl)methoxy]pyridin-2-yl}piperidin-1-yl)methyl]-1-{[(2S)-oxetan-2-yl]methyl}-1H-1,3-benzodiazol-5-yl}-6-cyclopropylpyridine-3-carboxamide]
16 | 5.9 | COCCOc1ccc(C(=O)Nc2ccc3c(c2)nc(CN2CCC(c4cccc(OCc5ccc(Cl)cc5F)n4)CC2)n3C[C@@H]2CCO2)cn1 [Compound 177a, N-{2-[(4-{6-[(4-chloro-2-fluorophenyl)methoxy]pyridin-2-yl}piperidin-1-yl)methyl]-1-{[(2S)-oxetan-2-yl]methyl}-1H-1,3-benzodiazol-5-yl}-6-(2-methoxyethoxy)pyridine-3-carboxamide]
17 | 0.57 | Cc1cnccc1C(=O)Nc1ccc2c(c1)nc(CN1CCC(c3cccc(OCc4ccc(Cl)cc4F)n3)CC1)n2C[C@@H]1CCO1 [Compound 178a, N-{2-[(4-{6-[(4-chloro-2-fluorophenyl)methoxy]pyridin-2-yl}piperidin-1-yl)methyl]-1-{[(2S)-oxetan-2-yl]methyl}-1H-1,3-benzodiazol-5-yl}-3-methylpyridine-4-carboxamide]
